In patent US20250360071A1, “AGENT FOR INDUCING CILIUM” (MED R&D Co. Ltd, priority 2022, published 2025):

How the values were obtained:
[1] = tested on: dorsal skin; experiment: Gene ontology (GO), GO enrichment and tissue-specific expression analysis of transcriptome, Experimental Example 7; format: in vivo, mouse; conditions: 20th day
Method: Gene ontology (GO) analysis and GO enrichment analysis were performed based on the results of the transcriptome analysis in Experimental Example 6.
Subsequently, term enrichment analysis of the genes with expression increased specifically with respect to the skin tissue was performed. Using tissue-specific expression analysis (TSEA), genes related to the skin tissue were filtered, and functions that were specifically enriched in the maslinic acid treatment group and the tieghemelin treatment group and were not enriched in the minoxidil treatment group were selected.

[2] = tested on: dorsal skin; experiment: Transcriptome analysis and extended network analysis of dorsal skin, Experimental Examples 6 and 8; format: in vivo, mouse; conditions: 20th day, 1% applied daily; maslinic acid group vs tieghemelin group
Method: A mouse in each group of Experimental Example 5 and a mouse in the group which had been subjected to the same treatment as in Experimental Example 5 using 1% tieghemelin (n=6) were euthanized on the 20th day, and the dorsal skin was collected and subjected to transcriptome analysis.
(§1) Extended network analysis was performed based on the results of the transcriptome analysis in Experimental Example 6. FIGS. 20 to 22 are views showing the results of the extended network analysis. FIG. 20 is an analysis result obtained from a dataset of the minoxidil treatment group, FIG. 21 is an analysis result obtained from a dataset of the maslinic acid treatment group, and FIG. 22 is an analysis result obtained from a dataset of the tieghemelin treatment group. In FIGS. 20 to 22, a white circle indicates a gene with increased expression, and a black circle indicates a gene with decreased expression. In addition, the size of the circle indicates the magnitude of a change in expression level.

[3] = tested on: C3H male mouse; experiment: Hair growth promoting effect in vivo, application to depilated dorsal skin, Experimental Example 5
Method: The oleanane-type triterpenoid was applied to the dorsal skin of a mouse and the hair growth promoting effect was examined. Maslinic acid was used as the oleanane-type triterpenoid. In addition, for comparison, a group in which minoxidil was used and a control group in which only a solvent was applied were prepared.
FIG. 12 is a schematic view showing an experimental schedule. After acclimatization of a C3H male mouse, the dorsal skin was depilated with a shaver and a depilatory cream. Thereafter, 150 μL of 1% minoxidil (n=8), 1% maslinic acid (n=6), or a solvent (n=8) was applied to the mouse in each group every day for 20 days, and the mouse was observed over time.
It is known that the hair cycle of a mouse has three stages of an anagen, a catagen, and a telogen. During the anagen (the 1st day to the 16th day), the hair follicle grows into the deep subcutaneous part. In the catagen (the 17th day to the 19th day), the hair follicle stops growing and regresses to the upper subcutaneous part. In the telogen (the 20th day to the 29th day), the hair shaft is in a state where it can be lost at any time. It is known that the color of the dorsal skin of a mouse changes to pink, gray, and black due to the hair cycle. FIG. 13 is a view showing a change in the color of the dorsal skin of a mouse due to the hair cycle.

[4] = tested on: Iqcb1; experiment: Iqcb1 expression from transcriptome / extended network analysis, Experimental Example 8; format: in vivo, mouse; conditions: dorsal skin, 20th day, 1% applied daily
Method: as §1
DDX58 is an innate immune receptor that senses viral nucleic acids in the cytoplasm and activates a downstream signal transduction cascade leading to the production of type I interferons or inflammatory cytokines. IQCB1 is a protein known to be involved in formation of cilium.

[5] = tested on: hair cycle-related genes; experiment: Fluctuation in expression of hair cycle-related genes from transcriptome, Experimental Example 9; format: in vivo, mouse; conditions: dorsal skin, 20th day
From the text: A fluctuation in expression of the hair cycle-related genes was examined, based on the results of the transcriptome analysis in Experimental Example 6.

[6] = tested on: dorsal skin; experiment: Fluorescence immunostaining of dorsal skin tissue sections, Experimental Example 10; format: in vivo, mouse; conditions: 20th day
From the text: A mouse in each group of Experimental Examples 5 and 6 was euthanized on the 20th day, the dorsal skin was collected, and the tissue section was subjected to immunostaining.
FIG. 23 is a photomicrograph showing the results of detecting the expressions of β-catenin and K14 by fluorescence immunostaining. In addition, the nuclei were stained with 4′,6-diamidino-2-phenylindole (DAPI). The β-catenin is a hair growth promoting marker and is also a marker for the start of the anagen. K14 is an epidermal marker and is known to increase with the differentiation of hair follicle stem cells.
FIG. 24 is a photomicrograph showing the results of detecting the expression of VEGF by fluorescence immunostaining. In addition, the nuclei were stained with DAPI. VEGF is known to improve the vascularization of hair follicles, increase the size of hair follicles and hair, and promote the growth and circulation of hair follicles.

[7] = tested on: HFDPCs; experiment: Co-culture system of Caco-2 and HFDPC, hair growth marker expression, Experimental Example 4; format: cell-based, human; conditions: added inside the Caco-2 insert; saponin mixture 5 μg/mL, finasteride 10 μM; after 2, 6 and 12 hours; vs control
Method: An examination was carried out using a co-culture system of Caco-2 and an HFDPC which are human intestinal epithelial cell lines. FIG. 8 is a schematic view illustrating a co-culture system of the present Experimental Example. […] A permeable membrane having a pore size of […] was disposed on the bottom surface of the 96-well insert. […] In a case where the drug is permeable to the intestinal epithelial cells, with the addition of the drug into the inside of the transwell insert of the co-culture system, the drug permeates from the apex side (lumen side) to the basal side (vascular side) of the Caco-2 cells. Furthermore, the drug that permeated acts on the HFDPCs seeded on the receiver plate. A mixture in which each saponin was mixed at a ratio shown in Table 1 below (which may hereinafter be referred to as a “saponin mixture”) was used as a sample for the examination. The saponin mixture was added to the inside of the transwell insert of the co-culture system so that a concentration thereof was 5 μg/mL. Subsequently, the expression of the hair growth marker in the HFDPCs seeded on the receiver plate was measured by quantitative real-time PCR after 2 hours, 6 hours, and 12 hours. As the hair growth markers, a CTNNB1 gene (β-catenin), an ALPL gene (alkaline phosphatase), and an FGF1 gene (fiblobrast growth factor 1) were measured. […]

[8] = fluorescence immunostaining, dorsal skin

CC1(C)CC[C@]2(C(=O)O)CC[C@]3(C)C(=CC[C@@H]4[C@@]5(C)C[C@@H](O)[C@H](O)C(C)(C)[C@@H]5CC[C@]43C)[C@@H]2C1 [maslinic acid]
number of genes with decreased expression common among the minoxidil, maslinic acid and tieghemelin treatment groups [1]: 316 | number of genes with decreased expression common between the minoxidil and maslinic acid treatment groups [1]: Seventy-two | number of genes with increased expression common among the minoxidil, maslinic acid and tieghemelin treatment groups [1]: 342 | number of genes with increased expression common between the minoxidil and maslinic acid treatment groups [1]: Eighty-one | functions specifically enriched among skin-tissue genes with increased expression (TSEA) ([1]; functions not enriched in the minoxidil treatment group): skin barriers, keratinocytes, proliferation of epithelial cells, pigmentation, and interactions between cytokines and cytokine receptors | pattern of differentially expressed genes in the dorsal skins [2]: showed the same pattern | black area indicating the late anagen, vs control group ([3]; 10th day, 1% applied daily): larger black area | speed of a transition from the telogen to the anagen (order) ([3]; 10th day, 1% applied daily): Minoxidil≈Maslinic acid>Control group | hair cycle stage observed on the 20th day ([3]; 20th day, 1% applied daily): transitioned to the next telogen | speed of transition to the telogen after the anagen and the catagen (order) ([3]; 20th day, 1% applied daily): Minoxidil=Maslinic acid>Control group | hair cycle stage observed on the 10th day ([3]; 150 μL of 1% applied daily, control transitioned from telogen to anagen on the 10th day): transition to the late anagen | influence on the body weight of the mouse ([3]; 150 μL of 1% applied to dorsal skin every day for 20 days): No influence on the body weight | Iqcb1 expression [4]: upregulated | expression level of Iqcb1 compared with the minoxidil treatment group [4]: increased more | expression level of BMP4 [5]: decreased | expression of NF-κB [5]: decreased | sizes of the hair follicle and the hair shaft ([6]; dorsal skin section): increased | expression of K14 [6, 8]: increase in the expression | expression of VEGF [6, 8]: increased | expression of β-catenin [6, 8]: increase in the expression

CC(C)(C)NC(=O)[C@H]1CC[C@H]2[C@@H]3CC[C@H]4NC(=O)C=C[C@]4(C)[C@H]3CC[C@]12C [finasteride]
expression of the hair growth marker (CTNNB1, ALPL, FGF1) in HFDPCs [7]: induced the expression of the hair growth marker regardless of the treatment time
